The values that follow come from patent US20230078764A1 (Yumanity Therapeutics, Inc., priority 2019, published 2023).

Read-outs that look alike come from different tables or passages of the source.

Holding throughout (type): cell-based
The target of assay [1] is human SCD5 (Homo sapiens, UniProt Q86SK9). The assay is described as follows: Growth inhibition of yeast strain expressing human SCD5 as sole desaturase (OLE1 deleted), OD600 readout.
The target in assay [2] is human SCD1 (Homo sapiens, UniProt O00767). Briefly: Growth inhibition of yeast strain expressing human SCD1 as sole desaturase (OLE1 deleted), OD600 readout.
Assay [3] has as its target T1, human SCD1 (Homo sapiens, UniProt O00767).
T1 construct: expressed in transfected cells; host or cells: yeast strain with OLE1 deleted, plasmid-borne human SCD1 (selected in SD-Ura)
T1 sequence (O00767 1-359): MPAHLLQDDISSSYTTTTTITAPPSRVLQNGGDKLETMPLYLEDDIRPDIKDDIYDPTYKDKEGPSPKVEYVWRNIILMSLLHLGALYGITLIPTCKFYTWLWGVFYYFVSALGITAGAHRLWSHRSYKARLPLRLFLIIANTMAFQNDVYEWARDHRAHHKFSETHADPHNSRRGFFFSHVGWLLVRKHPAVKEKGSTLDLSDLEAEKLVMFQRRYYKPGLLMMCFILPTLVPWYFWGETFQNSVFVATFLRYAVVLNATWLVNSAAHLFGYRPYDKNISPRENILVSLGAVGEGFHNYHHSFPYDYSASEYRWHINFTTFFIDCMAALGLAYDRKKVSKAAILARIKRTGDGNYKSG
Described as above. The settings on record: yeast strain expressing human SCD1 as sole desaturase; growth (OD600) after 40 h at 30° C.; read-out: SCD1 IC50.

In assay [4] the target is T2, human SCD5 (Homo sapiens, UniProt Q86SK9).
T2 construct: expressed in transfected cells; host or cells: yeast strain with OLE1 deleted, plasmid-borne human SCD5 (selected in SD-Ura)
T2 sequence (Q86SK9 1-330): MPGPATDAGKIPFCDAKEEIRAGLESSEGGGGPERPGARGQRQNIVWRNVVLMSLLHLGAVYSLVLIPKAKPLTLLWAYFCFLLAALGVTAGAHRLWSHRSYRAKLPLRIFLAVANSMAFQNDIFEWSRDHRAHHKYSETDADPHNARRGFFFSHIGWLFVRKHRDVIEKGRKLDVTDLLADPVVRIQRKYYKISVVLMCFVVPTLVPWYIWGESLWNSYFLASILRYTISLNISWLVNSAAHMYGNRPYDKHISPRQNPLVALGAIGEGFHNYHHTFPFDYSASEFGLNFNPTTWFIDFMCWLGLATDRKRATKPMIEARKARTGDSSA
The assay is described as follows: Growth inhibition of yeast strain expressing human SCD5 as sole desaturase (OLE1 deleted), OD600 readout.

The mark [5] stands for this setting: yeast strain expressing human SCD5 as sole desaturase, growth (OD600) after 40 h at 30° C., read-out: SCD5 IC50.

In the case of `CN1N=C(C(=O)Nc2ncc(Cc3ccccc3)s2)CCC1=O`, the IC50 in assay [1] came to 190 nM; in assay [2], 590 nM.
For `CN1N=C(C(=O)Nc2ncc(Cc3cccc(Cl)c3)cn2)CCC1=O` [Compound 175, N-(5-(3-chlorobenzyl)pyrimidin-2-yl)-1-methyl-6-oxo-1,4,5,6-tetrahydropyridazine-3-carboxamide], the IC50 in assay [1] is 20100 nM; in assay [3], above 45000 nM.
Turning to `CN1N=C(C(=O)Nc2ccc(CC3=CCCCC3)cn2)CCC1=O` [Example 34, N-(5-(cyclohexenylmethyl)pyridin-2-yl)-1-methyl-6-oxo-1,4,5,6-tetrahydropyridazine-3-carboxamide], the IC50 in assay [4] (setting [5]) is 710 nM; in assay [3] it was above 45000 nM.
Taken in the same sequence, the figures for `Cn1nc(C(=O)Nc2ccc(Cc3ccc(F)c(F)c3)cn2)ccc1=O` [Example 35, N-(5-(3,4-difluorobenzyl)pyridin-2-yl)-1-methyl-6-oxo-1,6-dihydropyridazine-3-carboxamide] were 300 nM and above 45000 nM.
On the same counts, the results for `Cn1nc(C(=O)Nc2ccc(Cc3ccc(Cl)cc3)cn2)ccc1=O` [Example 36, N-(5-(4-chlorobenzyl)pyridin-2-yl)-1-methyl-6-oxo-1,6-dihydropyridazine-3-carboxamide] are 380 nM and 16900 nM.
`Cn1nc(C(=O)Nc2ccc(Cc3cc(F)cc(F)c3)cn2)ccc1=O` [Example 37, N-(5-(3,5-difluorobenzyl)pyridin-2-yl)-1-methyl-6-oxo-1,6-dihydropyridazine-3-carboxamide]: the concentration for half-maximal inhibition (IC50) worked out at 50 nM in assay [4] (setting [5]) and 10200 nM in assay [3].
Taken in the same sequence, the figures for `Cn1nc(C(=O)Nc2ccc(CC3CCCCC3)cn2)ccc1=O` [Example 38, N-(5-(cyclohexylmethyl)pyridin-2-yl)-1-methyl-6-oxo-1,6-dihydropyridazine-3-carboxamide] were 890 nM and 15700 nM.
On the same counts, the results for `Cn1nc(C(=O)Nc2ccc(Cc3ccc(C(F)(F)F)cc3)cn2)ccc1=O` [Example 39, 1-methyl-6-oxo-N-(5-(4-(trifluoromethyl)benzyl)pyridin-2-yl)-1,6-dihydropyridazine-3-carboxamide] are 920 nM and above 45000 nM.
Taken in the same sequence, the figures for `Cn1nc(C(=O)Nc2ccc(Cc3cc(F)cc(Cl)c3)cn2)ccc1=O` [Example 40, N-(5-(3-chloro-5-fluorobenzyl)pyridin-2-yl)-1-methyl-6-oxo-1,6-dihydropyridazine-3-carboxamide] were 10 nM and 110 nM.
Take `Cn1nc(C(=O)Nc2ccc(Cc3cc(F)c(F)c(F)c3)cn2)ccc1=O` [Example 41, 1-methyl-6-oxo-N-(5-(3,4,5-trifluorobenzyl)pyridin-2-yl)-1,6-dihydropyridazine-3-carboxamide]: the IC50 in assay [4] (setting [5]) was 10 nM; in assay [3], 190 nM.
On the same counts, the results for `Cn1nc(C(=O)Nc2ccc(Cc3cc(F)cc(C#N)c3)cn2)ccc1=O` [Example 42, N-(5-(3-cyano-5-fluorobenzyl)pyridin-2-yl)-1-methyl-6-oxo-1,6-dihydropyridazine-3-carboxamide] are 80 nM and 2410 nM.
Taken in the same sequence, the figures for `COc1cccc(Cc2ccc(NC(=O)c3ccc(=O)n(C)n3)nc2)c1` [Example 44, N-(5-(3-methoxybenzyl)pyridin-2-yl)-1-methyl-6-oxo-1,6-dihydropyridazine-3-carboxamide] were 780 nM and 14100 nM.
On the same counts, the results for `Cn1nc(C(=O)Nc2ccc(Cc3cccc(F)c3)cn2)ccc1=O` [Example 45, N-(5-(3-fluorobenzyl)pyridin-2-yl)-1-methyl-6-oxo-1,6-dihydropyridazine-3-carboxamide] are 430 nM and 15400 nM.
On to `Cn1nc(C(=O)Nc2ccc(Cc3ccc(F)c(Cl)c3)cn2)ccc1=O` [Example 46, N-(5-(3-chloro-4-fluorobenzyl)pyridin-2-yl)-1-methyl-6-oxo-1,6-dihydropyridazine-3-carboxamide], for which the IC50 in assay [4] (setting [5]) is 10 nM; in assay [3] it was 60 nM.
On the same counts, the results for `Cn1nc(C(=O)Nc2ccc(Cc3cccc(Cl)c3)cn2)ccc1=O` [Example 47, N-(5-(3-chlorobenzyl)pyridin-2-yl)-1-methyl-6-oxo-1,6-dihydropyridazine-3-carboxamide] are 130 nM and 1100 nM.
For the compound `Cn1cc(C(=O)Nc2ccc(Cc3cccc(Cl)c3)cn2)ccc1=O` [Example 48, N-(5-(3-chlorobenzyl)pyridin-2-yl)-1-methyl-6-oxo-1,6-dihydropyridine-3-carboxamide], the IC50 is 10 nM in assay [4] (setting [5]) and 150 nM in assay [3].
Take `COc1ccc(Cc2ccc(NC(=O)c3ccc(=O)n(C)c3)nc2)cc1F` [Example 49, N-(5-(3-fluoro-4-methoxybenzyl)pyridin-2-yl)-1-methyl-6-oxo-1,6-dihydropyridine-3-carboxamide]: the IC50 in assay [4] (SCD5 IC50) was 21200 nM; in assay [3], above 45000 nM.
